# Laboratory results as given in patent publication US20250144130A1, “POLYSACCHARIDE COMPOUND WITH A DEFINED MOLECULAR STRUCTURE THAT CAN ELIMINATE THE TOXIC SIDE EFFECTS OF CHEMOTHERAPY DRUGS” (priority 2023, published 2025).
# Marks after values point to notes of the source that are not given here.
# Columns and labels:
# LLC-bearing mice = test: Antitumor effect of GLP-3 combined with chemotherapy on LLC-bearing mice (tumor volume, inhibition rates, tumor index); assay type: in vivo, C57 mice; conditions: cisplatin 4 mg/kg ip q3d
# Procedure: Healthy LLC cells were inoculated subcutaneously into the left shoulder of 5 healthy male C57 mice. […] This suspension was then injected subcutaneously into the axilla of 60 healthy male C57 mice to establish a solid tumor model. […] Longest and shortest diameters of tumors were measured every three days to calculate tumor volume, and mouse weights were recorded every three days. At the end of the experiment, tumors, spleens, and thymuses were harvested and weighed to calculate tumor, spleen, and thymus indices. […] [table] […] Where TRTV is the relative tumor volume in the experimental group, and CRTV is the relative tumor volume in the model control group. Relative tumor volume (RTV)=Vt/V0, where Vt is the tumor volume on day t of dosing, and V0 is the tumor volume at the time of grouping. Evaluation criteria: […] Where T represents the average tumor weight in the treatment group, and C represents the average tumor weight in the model control group. Evaluation criteria: […] Tumor index (%)=(tumor weight/body weight)×100%.
# [1] = Mortality, body weight, spleen and thymus indices in LLC-bearing mice; assay type: in vivo, C57 mice; conditions: cisplatin 4 mg/kg ip q3d
# Procedure: Healthy LLC cells were inoculated subcutaneously into the left shoulder of 5 healthy male C57 mice. Once tumors reached a volume of 2,000-3,000 mm^3, they were harvested and homogenized to prepare a homogenate suspension. This suspension was then injected subcutaneously into the axilla of 60 healthy male C57 mice to establish a solid tumor model. Once all mouse tumors averaged a volume of about 150 mm^3, mice were randomized into groups based on tumor volume and were administered the respective drugs or drug solvents via oral gavage or intraperitoneal injection for 19 consecutive days. Longest and shortest diameters of tumors were measured every three days to calculate tumor volume, and mouse weights were recorded every three days. At the end of the experiment, tumors, spleens, and thymuses were harvested and weighed to calculate tumor, spleen, and thymus indices.
# (§1) Spleen and thymus organ coefficients: After the last dose, spleen, thymus, and tumor weights are measured, and organ coefficients are calculated.
# (§2) Immune organ index (mg/g)=(organ mass/body weight)×1000.
# [2] = Mortality, body weight, spleen and thymus indices in H22-bearing mice; assay type: in vivo, C57 mice; conditions: sc H22 mice, cisplatin 3 mg/kg ip q3d
# Procedure: A homogenate suspension of H22 hepatoma solid tumors was injected subcutaneously under the axilla of 50 healthy male C57 mice to create a solid tumor model. Once all mouse tumors averaged a volume of about 200 mm^3, mice were randomized into groups based on tumor volume and were administered the respective drugs or drug solvents via oral gavage or intraperitoneal injection for 22 consecutive days. Longest and shortest diameters of tumors were measured every three days to calculate tumor volume, and mouse weights were recorded every three days. At the end of the experiment, tumors, spleens, and thymuses were harvested and weighed to calculate tumor, spleen, and thymus indices.
# as §1, §2
# [3] = Histopathological examination of liver, spleen and thymus in orthotopic H22-bearing mice; assay type: in vivo, C57 mice; conditions: radiotherapy 2 Gy/d + cisplatin 4 mg/kg ip q3d
# From the text: Liver cancer (H22) cells, labeled with Luc fluorescent marker at a concentration of 1×10^7 cells/mL, were initially inoculated into the peritoneal cavity of 8 male C57 mice. After the development of ascites, the ascitic fluid was aseptically extracted, washed with HBSS buffer, centrifuged to discard the supernatant, and stained with Trypan Blue, and cells in the ascitic fluid were counted under a microscope. The cell concentration was adjusted to […] with HBSS buffer and inoculated into the right hepatic region of 80 male C57 mice, at a volume of 10 μL per mouse, to prepare the orthotopic tumor-bearing mice. One week later, the liver tumor formation in mice was detected using a small animal in vivo imaging system. […] An additional 10 mice served as the normal control group. Except for the normal control group, all other animals underwent radiotherapy using an animal radiotherapy instrument. The animals were anesthetized, placed in homemade lead clothing, and the tumor tissue was exposed for radiation treatment at an intensity of 2 Gy/day for 5 consecutive days. The normal control group and the model control group were administered pure water by oral gavage. […] After the last dose, blood was collected from the orbital plexus to test blood WBC, RBC, liver and kidney function indicators (ALT, AST, BUN, CRE), and CD3^+/CD4^+, CD3^+/CD8^+ ratios. […]
# H22-bearing mice = test: Antitumor effect of GLP-3 combined with chemotherapy on H22-bearing mice (tumor volume, inhibition rates, tumor index); assay type: in vivo, C57 mice; conditions: sc H22 mice, cisplatin 3 mg/kg ip q3d
# Procedure: Longest and shortest diameters of tumors were measured every three days to calculate tumor volume, and mouse weights were recorded every three days. At the end of the experiment, tumors, spleens, and thymuses were harvested and weighed to calculate tumor, spleen, and thymus indices. […] [table] […] Where TRTV is the relative tumor volume in the experimental group, and CRTV is the relative tumor volume in the model control group. Relative tumor volume (RTV)=Vt/V0, where Vt is the tumor volume on day t of dosing, and V0 is the tumor volume at the time of grouping. Evaluation criteria: […] Where T represents the average tumor weight in the treatment group, and C represents the average tumor weight in the model control group. Evaluation criteria: […] Tumor index (%)=(tumor weight/body weight)×100%.
# [4] = Mortality, body weight and organ coefficients in orthotopic H22-bearing mice; conditions: radiotherapy 2 Gy/d + cisplatin 4 mg/kg ip q3d
# From the text: Liver cancer (H22) cells, labeled with Luc fluorescent marker at a concentration of 1×10^7 cells/mL, were initially inoculated into the peritoneal cavity of 8 male C57 mice. After the development of ascites, the ascitic fluid was aseptically extracted, washed with HBSS buffer, centrifuged to discard the supernatant, and stained with Trypan Blue, and cells in the ascitic fluid were counted under a microscope. The cell concentration was adjusted to […] with HBSS buffer and inoculated into the right hepatic region of 80 male C57 mice, at a volume of 10 μL per mouse, to prepare the orthotopic tumor-bearing mice. One week later, the liver tumor formation in mice was detected using a small animal in vivo imaging system. […] An additional 10 mice served as the normal control group. Except for the normal control group, all other animals underwent radiotherapy using an animal radiotherapy instrument. The animals were anesthetized, placed in homemade lead clothing, and the tumor tissue was exposed for radiation treatment at an intensity of 2 Gy/day for 5 consecutive days. The normal control group and the model control group were administered pure water by oral gavage. […] After the last dose, blood was collected from the orbital plexus to test blood WBC, RBC, liver and kidney function indicators (ALT, AST, BUN, CRE), and CD3^+/CD4^+, CD3^+/CD8^+ ratios. The spleen, thymus, and tumors were weighed to calculate organ coefficients, and the liver, spleen, and thymus underwent histopathological examination.
# Animal survival and general condition: Weight was recorded weekly, along with any deaths among the animals.
# Immune organs: The thymus, spleen, tumor, and liver were weighed, and organ coefficients were calculated as follows: organ coefficient (%)=organ weight/fasting body weight×100%.
# [5] = tested on: lymphocyte subtypes CD3^+/CD4^+ and CD3^+/CD8^+; test: Blood CD3+/CD4+ and CD3+/CD8+ ratios by flow cytometry in orthotopic H22-bearing mice; assay type: in vivo, C57 mice; conditions: radiotherapy 2 Gy/d + cisplatin 4 mg/kg ip q3d, after the last dose, Mean ± SEM
# Procedure: CD4^+ and CD8^+ content measurement: After the last dose, lymphocyte subtypes CD3^+/CD4^+ and CD3^+/CD8^+ in the blood were measured using flow cytometry.
# [6] = tested on: orthotopic H22-bearing mice; test: Tumor by small animal in vivo imaging, GLP-3 combined with radiotherapy, orthotopic H22-bearing mice; set-up: species or system C57 mice; conditions: radiotherapy 2 Gy/d + cisplatin 4 mg/kg ip q3d
# Procedure: This study used the proposed clinical dose as a basis for the experiment. The radiotherapy intensity for this study was designed to be 2 Gy per day. [table] Tumor volume measurement: Tumor volume changes were measured weekly using small animal in vivo imaging technology.
# [7] = after the last dose, Mean ± SEM
smiles,measurement,setting,value
N.N.[Cl][Pt][Cl] [Cisplatin],Tumor volume,LLC-bearing mice; D0,137.9 ± 50^ mm^3
same,Relative tumor growth inhibition rate (compared to model control group),LLC-bearing mice; D3,4.3%
same,Tumor volume,LLC-bearing mice; D3,300.1 ± 102.7 mm^3
same,Relative tumor growth inhibition rate (compared to model control group),LLC-bearing mice; D6,30.0%
same,Tumor volume,LLC-bearing mice; D6,486.6 ± 188.9 mm^3
same,Relative tumor growth inhibition rate (compared to model control group),LLC-bearing mice; D9,54.6^+ %
same,Tumor volume,LLC-bearing mice; D9,771.3 ± 256^+ mm^3
same,Relative tumor growth inhibition rate (compared to model control group),"LLC-bearing mice; D9, listed as cisplatin",54.6%
same,Relative tumor growth inhibition rate (compared to model control group),LLC-bearing mice; D12,63.8^+ %
same,Tumor volume,LLC-bearing mice; D12,1173.9 ± 488.8^+ mm^3
same,Relative tumor growth inhibition rate (compared to model control group),"LLC-bearing mice; D12, listed as cisplatin",63.8%
same,Relative tumor growth inhibition rate (compared to model control group),LLC-bearing mice; D15,77.3^+ %
same,Tumor volume,LLC-bearing mice; D15,1409.5 ± 820.5^+ mm^3
same,Relative tumor growth inhibition rate (compared to model control group),"LLC-bearing mice; D15, listed as cisplatin",77.3%
same,Relative tumor growth inhibition rate (compared to model control group),LLC-bearing mice; D19,79.5^+ %
same,Tumor volume,LLC-bearing mice; D19,1771.9 ± 1091.6^+ mm^3
same,Relative tumor growth inhibition rate (compared to model control group),"LLC-bearing mice; D19, listed as cisplatin",79.5%
same,Tumor index,LLC-bearing mice; after the last dose,9.09 ± 4.19^+ %
same,Tumor growth inhibition rate vs. the model control group,LLC-bearing mice; by average tumor weight,74.4%
same,Mortality rate,[1]; 19 days,0.0%
same,Number of deaths,[1]; 19 days,0
same,Survival time,[1]; 19 days,19 ± 0 days
same,Weight,[1]; D0,21.5 ± 1.3 g
same,Weight,[1]; D3,20.9 ± 1.3^ g
same,Weight,[1]; D6,20.4 ± 1.9^+ g
same,Weight,[1]; D9,18.3 ± 2.6^+ g
same,Weight,[1]; D12,18.6 ± 2.8^+ g
same,Weight,[1]; D15,17.7 ± 2.7^+ g
same,Weight,[1]; D19,16.8 ± 2.8^+ g
same,Spleen index,[1]; after the last dose,2.84 ± 0.77^+ mg/g
same,Mortality rate,[2]; 22 days,0.0%
same,Number of deaths,[2]; 22 days,0
same,Survival time,[2]; 22 days,22 ± 0 days
same,Weight,[2]; D0,18.9 ± 0.8^+ g
same,Weight,[2]; D3,19.9 ± 0.7 g
same,Weight,[2]; D6,19.5 ± 0.6^+ g
same,Weight,[2]; D9,19.6 ± 0.8 g
same,Weight,[2]; D12,19.5 ± 0.8^+ g
same,Weight,[2]; D15,19.2 ± 0.7^+ g
same,Weight,[2]; D18,18.5 ± 0.9^+ g
same,Spleen index,[2]; after the last dose,3.4 ± 0.3^+ mg/g
same,Thymus index,[2]; after the last dose,0.6 ± 0.1 mg/g
same,"Histopathology of liver, spleen and thymus",[3],"extensive H22 cell infiltration and necrosis were observed along with increased extramedullary hematopoiesis in the spleen and a decreased number of white pulp cells, with a reduction in thymic lymphocyte counts"
same,Tumor volume,H22-bearing mice; D0,188.2 ± 48.7 mm^3
same,Relative tumor growth inhibition rate (compared to model control group),H22-bearing mice; D3,11.7%
same,Tumor volume,H22-bearing mice; D3,338.6 ± 69.1 mm^3
same,Relative tumor growth inhibition rate (compared to model control group),H22-bearing mice; D6,19.5%
same,Tumor volume,H22-bearing mice; D6,356.9 ± 77.9 mm^3
same,Relative tumor growth inhibition rate (compared to model control group),H22-bearing mice; D9,53.1^+ %
same,Tumor volume,H22-bearing mice; D9,598.5 ± 219.2^+ mm^3
same,Relative tumor growth inhibition rate (compared to model control group),"H22-bearing mice; D9, listed as cisplatin",53.1%
same,Relative tumor growth inhibition rate (compared to model control group),H22-bearing mice; D12,64.4^+ %
same,Relative tumor growth inhibition rate (compared to model control group),"H22-bearing mice; D12, listed as cisplatin",64.4%
same,Relative tumor growth inhibition rate (compared to model control group),H22-bearing mice; D15,73.1^+ %
same,Tumor volume,H22-bearing mice; D15,900.4 ± 376.4^+ mm^3
same,Relative tumor growth inhibition rate (compared to model control group),"H22-bearing mice; D15, listed as cisplatin",73.1%
same,Relative tumor growth inhibition rate (compared to model control group),H22-bearing mice; D18,71.6^+ %
same,Tumor volume,H22-bearing mice; D18,1098.3 ± 397^+ mm^3
same,Relative tumor growth inhibition rate (compared to model control group),"H22-bearing mice; D18, listed as cisplatin",71.6%
same,Relative tumor growth inhibition rate (compared to model control group),H22-bearing mice; D22,75.0^+ %
same,Tumor volume,H22-bearing mice; D22,1526.5 ± 535.7^+ mm^3
same,Relative tumor growth inhibition rate (compared to model control group),"H22-bearing mice; D22, listed as cisplatin",75.0%
same,Tumor index,H22-bearing mice; after the last dose,6.6 ± 2.2^+ %
same,Tumor growth inhibition rate vs. the model control group,H22-bearing mice; by average tumor weight,75.7%
same,Mortality rate,[4]; 14 days,60%
same,Number of deaths,[4]; 14 days,6
same,Number of surviving animals,[4]; 14 days,4
same,Weight,"[4]; W0, Mean ± SEM",17.1 ± 0.4^++ g
same,Weight,"[4]; W1, Mean ± SEM",13.6 ± 0.9**^ g
same,Weight,"[4]; W2, Mean ± SEM",14.6 ± 1.0 g
same,Liver coefficient,[4]; [7],7.962 ± 0.914 %
same,Spleen coefficient,[4]; [7],0.424 ± 0.140 %
same,Thymus coefficient,[4]; [7],0.039 ± 0.017%
same,CD3^+/CD4^+,[5],23.05 ± 12.70
same,CD3^+/CD8^+,[5],126.56 ± 67.07
same,Tumor,"[6]; W 0, Mean ± SEM",766250 ± 515323
same,Tumor,"[6]; W 1, Mean ± SEM",5188000 ± 2224171
